Results published in patent publication US20090048269A1 (AstraZeneca AB, priority 2007, published 2009).

target: T1, human ALK5 (Homo sapiens, UniProt P36897); assay: ALK5 Enzyme Assay 2 (fluorescence polarisation probe displacement); type: binding; parameters: 6His tagged human ALK5 (residues162-503) was grown and purified from insect cells; 6His; made in house; host or cells: insect cells; details: read-out: EAA2: activity (μM) using Enzyme Assay 2
T1 sequence (P36897 162-503): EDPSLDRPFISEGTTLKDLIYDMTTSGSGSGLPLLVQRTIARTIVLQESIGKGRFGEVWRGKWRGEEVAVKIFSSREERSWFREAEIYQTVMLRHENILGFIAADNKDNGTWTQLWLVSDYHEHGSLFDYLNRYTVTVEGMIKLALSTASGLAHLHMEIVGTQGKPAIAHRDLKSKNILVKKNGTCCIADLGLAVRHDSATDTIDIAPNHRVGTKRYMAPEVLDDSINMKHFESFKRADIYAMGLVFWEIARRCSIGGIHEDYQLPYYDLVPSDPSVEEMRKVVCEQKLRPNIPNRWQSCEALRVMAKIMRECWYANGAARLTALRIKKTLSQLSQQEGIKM
How it was run: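 Recombinant ALK5 (3 μg/mL) incubated with test compound in 50 mM HEPES pH7.4, 10 mM MgCl2, 1 mM DTT, 0.01% CHAPS. Displacement of a fluorescent quinazoline-based ALK5 probe (50 nM final) in presence of 1 μM ATP read by fluorescence polarisation.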

IC50 | Structure (SMILES)
0.0228 µM | COc1ccc(-c2nc(C)ccc2Oc2ccnc(Nc3cc(OC)c(OC)c(OC)c3)c2)cc1 [Example 168, 4-[2-(4-Methoxyphenyl)-6-methylpyridin-3-yl-oxy]-N-(3,4,5-trimethoxyphenyl)pyridin-2-amine]
0.0751 µM | COc1ccc(-c2nc(C)ccc2Oc2ccnc(Nc3cc(OC)c(OC)c(OC)c3)c2)cn1 [Example 169, 4-(6′-Methoxy-6-methyl-2,3′-bipyridin-3-yloxy)-N-(3,4,5-trimethoxyphenyl)pyridin-2-amine]
0.0239 µM | COc1cc(Nc2cc(Oc3ccc(C)nc3-c3ccc(F)cc3)ccn2)cc(OC)c1OC [Example 171, 4-[2-(4-Fluorophenyl)-6-methylpyridin-3-yloxy]-N-(3,4,5-trimethoxyphenyl)pyridin-2-amine]
0.061 µM | COc1cc(Nc2cc(Oc3ccc(C)nc3-c3cccnc3)ccn2)cc(OC)c1OC [Example 172, 4-(6-Methyl-2,3′-bipyridin-3-yloxy)-N-(3,4,5-trimethoxyphenyl)-pyridin-2-amine]
0.0966 µM | COc1cc(Nc2cc(Oc3ccc(C)nc3-c3cncnc3)ccn2)cc(OC)c1OC [Example 173, 4-(6-Methyl-2-pyrimidin-5-ylpyridin-3-yl)oxy-N-(3,4,5-trimethoxyphenyl)pyridin-2-amine]
0.0113 µM | Cc1ccc(Oc2ccnc(Nc3cccc(CO)c3)c2)c(C)n1 [Example 174, (3-{[4-(2,6-Dimethylpyridin-3-yl)oxypyridin-2-yl]amino}phenyl)-methanol]
0.00611 µM | Cc1ccc(Oc2ccnc(Nc3cccc(CN4CCN(S(C)(=O)=O)CC4)c3)c2)c(C)n1 [Example 175, 4-(2,6-Dimethylpyridin-3-yl)oxy-N-{3-[(4-methylsulfonyl-piperazin-1-yl)methyl]phenyl}pyridin-2-amine]
0.00829 µM | Cc1ccc(Oc2ccnc(Nc3cccc(CN4CCNCC4)c3)c2)c(C)n1 [Example 176, 4-(2,6-Dimethylpyridin-3-yl)oxy-N-[3-(Piperazin-1-ylmethyl)-phenyl]pyridin-2-amine]
0.0237 µM | Cc1ccc(Oc2ccnc(Nc3cccc(CN4CCN(C(=O)NC5CCCCC5)CC4)c3)c2)c(C)n1 [Example 178, N-Cyclohexyl-4-{3-[4-(2,6-dimethylpyridin-3-yloxy)pyridin-2-ylamino]benzyl}piperazine-1-carboxamide]
0.0233 µM | COc1ccc(NC(=O)N2CCN(Cc3cccc(Nc4cc(Oc5ccc(C)nc5C)ccn4)c3)CC2)cc1 [Example 179, 4-[(3-{[4-(2,6-Dimethylpyridin-3-yl)oxypyridin-2-yl]-amino}phenyl)methyl]-N-(4-methoxyphenyl)piperazine-1-carboxamide]
0.0896 µM | Cc1ccc(Oc2ccnc(Nc3cccc(CN4CCN(C(=O)Nc5ccc(F)c(Cl)c5)CC4)c3)c2)c(C)n1 [Example 180, N-(3-Chloro-4-fluorophenyl)-4-[(3-{[4-(2,6-dimethylpyridin-3-yl)oxypyridin-2-yl]amino}phenyl)methyl]piperazine-1-carboxamide]
0.0159 µM | CCCCCNC(=O)N1CCN(Cc2cccc(Nc3cc(Oc4ccc(C)nc4C)ccn3)c2)CC1 [Example 181, 4-[(3-{[4-(2,6-Dimethylpyridin-3-yl)oxypyridin-2-yl]amino}-phenyl)methyl]-N-pentylpiperazine-1-carboxamide]
0.0183 µM | Cc1ccc(Oc2ccnc(Nc3cccc(CN4CCN(S(=O)(=O)c5cccnc5-n5cncn5)CC4)c3)c2)c(C)n1 [Example 182, 4-(2,6-Dimethylpyridin-3-yl)oxy-N-[3-({4-[2-(1,2,4-triazol-1-yl)-pyridin-3-yl]sulfonylpiperazin-1-yl}methyl)phenyl]pyridin-2-amine]
0.0127 µM | Cc1ccc(Oc2ccnc(Nc3cccc(CN4CCN(C(=O)C5CC5)CC4)c3)c2)c(C)n1 [Example 183, N-(3-{[4-(cyclopropylcarbonyl)piperazin-1-yl]methyl}phenyl)-4-[(2,6-dimethylpyridin-3-yl)oxy]pyridin-2-amine]
0.0238 µM | Cc1ccc(Oc2ccnc(Nc3cccc(CN4CCN(C(=O)C5CCOCC5)CC4)c3)c2)c(C)n1 [Example 186, {4-[(3-{[4-(2,6-Dimethylpyridin-3-yl)oxypyridin-2-yl]amino}-phenyl)methyl]piperazin-1-yl}-(oxan-4-yl)methanone]
0.0232 µM | Cc1ccc(Oc2ccnc(Nc3cccc(CN4CCN(C(=O)CC(N)=O)CC4)c3)c2)c(C)n1 [Example 187, 3-{4-[(3-{[4-(2,6-Dimethylpyridin-3-yl)oxypyridin-2-yl]amino}phenyl)methyl]piperazin-1-yl}-3-oxopropanamide]

IC50 | Structure (SMILES)
0.00691 µM | Cc1ccc(Oc2ccnc(Nc3cccc(CN4CCN(CC(=O)NC5CC5)CC4)c3)c2)c(C)n1 [Example 188, N-cyclopropyl-2-{4-[(3-{[4-(2,6-dimethylpyridin-3-yl)oxypyridin-2-yl]amino}phenyl)methyl]piperazin-1-yl}acetamide]
0.0262 µM | Cc1ccc(Oc2ccnc(Nc3cccc(CN4CCN(C(=O)CCN)CC4)c3)c2)c(C)n1 [Example 189, 3-Amino-1-{4-[(3-{[4-(2,6-dimethylpyridin-3-yl)oxypyridin-2-yl]-amino}phenyl)methyl]piperazin-1-yl}propan-1-one]
0.0322 µM | Cc1ccc(Oc2ccnc(Nc3cccc(CN4CCN(C(C)C(N)=O)CC4)c3)c2)c(C)n1 (stereo not drawn) [Example 190, 2-14-[3-({4-[(2,6-dimethylpyridin-3-yl)oxylpyridin-2-yl}amino)-benzyl]piperazin-1-yl}propanamide]
0.0213 µM | CNC(=O)CN1CCN(Cc2cccc(Nc3cc(Oc4ccc(C)nc4C)ccn3)c2)CC1 [Example 191]
0.0155 µM | Cc1ccc(Oc2ccnc(Nc3cccc(CN4CCN(CCN5CCNC5=O)CC4)c3)c2)c(C)n1 [Example 192, 1-(2-{4-[(3-{[4-(2,6-Dimethylpyridin-3-yl)oxypyridin-2-yl]-amino}phenyl)methyl]piperazin-1-yl}ethyl)imidazolidin-2-one]
0.00427 µM | Cc1ccc(Oc2ccnc(Nc3cccc(CN4CCN(C)CC4)c3)c2)c(C)n1 [Example 193, 4-(2,6-Dimethylpyridin-3-yl)oxy-N-{3-[(4-methylpiperazin-1-yl)-methyl]phenyl}pyridin-2-amine]
0.0457 µM | Cc1ccc(Oc2ccnc(Nc3cccc(C(=O)NC4CC4)c3)c2)c(C)n1 [Example 194A, N-Cyclopropyl-3-{[4-(2,6-dimethylpyridin-3-yl)oxypyridin-2-yl]-amino}benzamide]
0.0121 µM | Cc1cc(Oc2ccnc(Nc3ccc(OCCNC(=O)OC(C)(C)C)cc3)c2)c(-c2ccccn2)nc1C [Example 195, tert-Butyl N-[2-(4-{[4-(5,6-dimethyl-2-pyridin-2-ylpyridin-3-yl)-oxypyridin-2-yl]amino}phenoxy)ethyl]carbamate]
0.00903 µM | Cc1cc(Oc2ccnc(Nc3ccc(OCCCNC(=O)OC(C)(C)C)cc3)c2)c(-c2ccccn2)nc1C [Example 196, tert-Butyl N-[3-(4-{[4-(5,6-dimethyl-2-pyridin-2-ylpyridin-3-yl)-oxypyridin-2-yl]amino}phenoxy)propyl]carbamate]
0.0061 µM | Cc1cc(Oc2ccnc(Nc3ccc(C(=O)NCCCNC(=O)OC(C)(C)C)cc3)c2)c(-c2ccccn2)nc1C [Example 197, tert-Butyl N-{3-[(4-{[4-(5,6-dimethyl-2-pyridin-2-ylpyridin-3-yl)-oxypyridin-2-yl]amino}benzoyl)amino]propyl}carbamate]
0.0147 µM | Cc1cc(Oc2ccnc(Nc3ccc(C(=O)NCCNC(=O)OC(C)(C)C)cc3)c2)c(-c2ccccn2)nc1C [Example 198, tert-Butyl N-{2-[(4-{[4-(5,6-dimethyl-2-pyridin-2-ylpyridin-3-yl)oxypyridin-2-yl]amino}benzoyl)amino]ethyl}carbamate]
0.00145 µM | Cc1cc(Oc2ccnc(Nc3ccc(C(=O)NCCCN)cc3)c2)c(-c2ccccn2)nc1C [Example 199, N-(3-Aminopropyl)-4-{[4-(5,6-dimethyl-2-pyridin-2-ylpyridin-3-yl)oxypyridin-2-yl]amino}benzamide]
0.00485 µM | Cc1cc(Oc2ccnc(Nc3ccc(C(=O)NCCN)cc3)c2)c(-c2ccccn2)nc1C [Example 200, N-(2-Aminoethyl)-4-{[4-(5,6-dimethyl-2-pyridin-2-ylpyridin-3-yl)oxypyridin-2-yl]amino}benzamide]
0.00393 µM | Cc1cc(Oc2ccnc(Nc3cccc(O)c3)c2)c(-c2ccccn2)nc1C [Example 201, 3-{[4-(5,6-Dimethyl-2-pyridin-2-ylpyridin-3-yl)oxypyridin-2-yl]-amino}phenol]
0.0279 µM | COC(=O)c1cccc(Nc2cc(Oc3cc(C)c(C)nc3-c3ccccn3)ccn2)c1 [Example 202, Methyl 3-{[4-(5,6-dimethyl-2-pyridin-2-ylpyridin-3-yl)oxypyridin-2-yl]amino}benzoate]
0.0384 µM | Cc1ccc(Oc2ccnc(Nc3cccc(CN4CCN(C(=O)OC(C)(C)C)CC4)c3)c2)c(C)n1 [Example 207, tert-Butyl 4-[(3-{[4-(2,6-dimethylpyridin-3-yl)oxypyridin-2-yl]-amino}phenyl)methyl]piperazine-1-carboxylate]

Structure (SMILES) | IC50
Cc1ccc(Oc2ccnc(Nc3cccc(CN4CCN(C(=O)NC56CC7CC(CC(C7)C5)C6)CC4)c3)c2)c(C)n1 [Example 177] | 0.0469 µM
